Test: Inhibition of human ERG expressed in HEK293 cells assessed as reduction in S35-MK-0499 binding

Question: For `O=C(Nc1cccc(Cl)c1)N1CCOc2ccc(-c3ccncc3)cc2C1`, which IC50 is on record?
Answer: The IC50 was 8.34 µM.

Source: BindingDB's records for doi:10.1016/j.bmcl.2016.04.018 (Merck Research Laboratories, 2016)
